From patent US20260216168A1, “MODULATION OF PD-1 SIGNALING FOR TREATMENT OF DISEASES” (Wuhan University, priority 2023, published 2026) come the findings set out here.

The target of test [1] is T1, MARCH5 (Homo sapiens, UniProt Q9NX47).
T1 construct: expressed in transfected cells; host or cells: HEK293
T1 sequence (Q9NX47 1-278): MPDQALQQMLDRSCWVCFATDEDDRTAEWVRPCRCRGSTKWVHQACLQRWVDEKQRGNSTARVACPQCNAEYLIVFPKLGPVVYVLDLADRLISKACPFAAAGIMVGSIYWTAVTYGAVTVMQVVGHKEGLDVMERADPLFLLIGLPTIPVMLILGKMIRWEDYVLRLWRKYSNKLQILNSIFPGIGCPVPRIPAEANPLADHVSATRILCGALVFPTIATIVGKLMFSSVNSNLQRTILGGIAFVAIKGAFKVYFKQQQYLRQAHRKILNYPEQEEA
Put plainly: MARCH5 / γc-luciferase reporter system in co-transfected HEK293 cells (screen of FDA-approved drugs). In kind it is cell-based. As to conditions: HEK293 cells co-transfected with MARCH5 and γc-luciferase fusion protein; increase = MARCH5 inhibition. The source says: Unfortunately, no pharmacological inhibitors of MARCH5 have been reported. We designed a reporter system in which HEK293 cells are co-transfected with two plasmids encoding MARCH5 and γc-luciferase fusion protein respectively. In this system, inhibition of MARCH5 by an inhibitor would result in increased luciferase activity in reporter assays.
Using this system, we screened a collection of Food and Drug Administration-approved drugs and identified 10 compounds that increased luciferase activity to more than 1.5-folds (Table 1). […] Pitavastatin is a unique lipophilic statin and potent inhibitor of HMG-CoA reductase with a strong effect on lowering plasma total cholesterol and triacylglycerol. Pitavastatin has also been reported to have pleiotropic beneficial effects such as suppression of inflammation, regulation of angiogenesis and osteogenesis, improvement of endothelial function and arterial stiffness.

The subject of test [2] is γc. The test can be described thus: γc degradation in Jurkat cells with degradation-route inhibitors (CHX chase or PD-L1 stimulation). The class given is cell-based, human. On the procedure:
PD-1-expressing Jurkat cells were pre-stimulated with PHA (50 ng/ml) for 36 h and then treated with CHX (0.1 mM) for the indicated times before immunoblotting analysis with the indicated antibodies. […] PD-1-expressing Jurkat cells were stimulated with PHA (50 ng/ml) in the presence of 2 μg/ml human PD-L1-Fc fusion protein or control (human IgG1) for 36 h, and then treated with MG132 ([…]), NH4Cl (25 mM) or 3-MA (500 ng/ml) for 12 h before immunoblotting analysis with the indicated antibodies. • (D) PD-1 ligation induces polyubiquitination of γc. PD-1-expressing Jurkat cells were stimulated with PHA (50 ng/ml) for the indicated times before co-immunoprecipitation and immunoblotting analysis with the indicated antibodies. • (E) MARCH5 promotes degradation of γc in a dose-dependent manner. HEK293 cells were transfected with the indicated plasmids for 24 h before immunoblot analysis with the indicated antibodies. • (F) Association of γc with MARCH5. […]
Cells were lysed in 1 ml of NP-40 lysis buffer (20 mM Tris-HCl, 150 mM NaCl, 1 mM EDTA, 10% Nonidet P-40, […] Triton X-100, […] aprotinin, 10 μg/ml leupeptin, and 1 mM phenylmethylsulfonyl fluoride, PMSF). […] The immunoprecipitants were analyzed by immunoblotting with the ubiquitin antibody.

Test [3] deals with T1, MARCH5. Put plainly: MARCH5-mediated degradation of γc in HEK293 cells. The class given is cell-based. On the procedure:
HEK293 cells were transfected by standard calcium phosphate precipitation. The empty control plasmid was added to ensure that each transfection receives the same amount of total DNA.
Cells were lysed in 1 ml of NP-40 lysis buffer (20 mM Tris-HCl, 150 mM NaCl, 1 mM EDTA, 10% Nonidet P-40, […] Triton X-100, […] aprotinin, 10 μg/ml leupeptin, and 1 mM phenylmethylsulfonyl fluoride, PMSF). For each immunoprecipitation reaction, a 0.4 ml aliquot of lysate was incubated with 0.5-2 μg of the indicated antibody or control IgG and 35 μL of a 1:1 slurry of Protein-G Sepharose (GE Healthcare) at 4° C. for 3 h. The Sepharose beads were washed three times with 1 ml of lysis buffer containing 500 mM NaCl. The precipitates were fractionated by SDS-PAGE, and immunoblotting analysis was performed with the indicated antibodies. For ubiquitination assays, the immunoprecipitants were re-extracted in NP-40 lysis buffer containing 1% SDS and denatured by heating for 10 min. The supernatants were diluted with regular lysis buffer until the concentration of SDS was decreased to 0.1%, following by re-immunoprecipitation with the indicated antibodies. The immunoprecipitants were analyzed by immunoblotting with the ubiquitin antibody.

The subject of test [4] is γc. The test can be described thus: Effects of other statin drugs on the γc level. The class given is cell-based. As to conditions: other HMG-CoA reductase inhibitor statins. An excerpt: Statin drugs, such as lovastatin, simvastatin, fluvastatin sodium and rosuvastatin calcium, are thought to target HMG-CoA reductase. Therefore, we examined the effects of these statin drugs on the γc level.

Test [5] concerns tumor. The test can be described thus: PC or rosuvastatin calcium alone or with IL-2 on tumor growth in mice. In kind it is in vivo, mouse. An excerpt:
We further tested the anti-tumor effects of PC in mouse MC38 colorectal carcinoma and B16F10 melanoma models.

Entries after “also recorded” stand apart in the source; their conditions may differ.

In the case of `O=C(/C=C/c1cccc(S(=O)(=O)Nc2ccccc2)c1)NO` [Belinostat], the “Rel. Luc. Act” value in test [1] is on record as 1.85.
For `Nc1ccccc1NC(=O)c1ccc(CNC(=O)OCc2cccnc2)cc1` [Entinostat], the “Rel. Luc. Act” value in test [1] came to 1.60.
Turning to `NC(=O)N1CCC(CC(=O)N2CCC([C@H]3c4ncc(Br)cc4CCc4cc(Cl)cc(Br)c43)CC2)CC1` [Lonafarnib], the “Rel. Luc. Act” value in test [1] stood at 2.88.
Take `Nc1ccccc1NC(=O)c1ccc(CNc2nccc(-c3cccnc3)n2)cc1` [Mocetinostat]: in test [1], the “Rel. Luc. Act” value stood at 1.83.
Consider `Cl.N` [NH4Cl, ammonium chloride], for which the “γc degradation after termination of protein synthesis by CHX” value in test [2] (Jurkat cells, MG132 100 μM, NH4Cl 25 mM or 3-MA 500 ng/ml 4 h, then CHX 0.1 mM 2 h) was “markedly inhibited; also recorded: inhibits γc degradation”. Besides, the “PD-L1-induced degradation of γc” value in test [2] (PD-1-expressing Jurkat cells, PHA + PD-L1-Fc 36 h, then inhibitor 12 h) was “also inhibited; also recorded: inhibits PD-1 ligation-induced degradation of γc”. In test [3], the “MARCH5-mediated degradation of γc” value is given as “inhibited MARCH5-mediated degradation of γc”.
As to `CCCCc1nc2cc(/C=C/C(=O)NO)ccc2n1CCN(CC)CC` [Pracinostat], the “Rel. Luc. Act” value in test [1] amounted to 1.75.
On to `O=P(O)(O)C(O)(Cc1cccnc1)P(=O)(O)O` [Risedronate Sodium], for which the “Rel. Luc. Act” value in test [1] was 1.60.
The same measure, in the same setting: the figure for `Nc1cc(F)ccc1NC(=O)c1ccc(CNC(=O)/C=C/c2cccnc2)cc1` [Tucidinostat] is 1.86; for `O=C(CCCCCCC(=O)Nc1ccccc1)NO` [Vorinostat] it is 1.58.
With `CC[C@H](C)C(=O)O[C@H]1C[C@@H](C)C=C2C=C[C@H](C)[C@H](CC[C@@H]3C[C@@H](O)CC(=O)O3)[C@H]21` [lovastatin], in test [4], the γc level result is reported as “up-regulated the level of γc”.
As for `CC(C)c1nc(N(C)S(C)(=O)=O)nc(-c2ccc(F)cc2)c1/C=C/[C@@H](O)C[C@@H](O)CC(=O)[O-].CC(C)c1nc(N(C)S(C)(=O)=O)nc(-c2ccc(F)cc2)c1/C=C/[C@@H](O)C[C@@H](O)CC(=O)[O-].[Ca+2]` [rosuvastatin calcium], the γc level result in test [4] is “up-regulated the level of γc”. For the same compound, in test [5] (combined with IL-2, mice), the “synergistic effect with IL-2 on tumor suppression” value was “no such synergism was observed”. Also, the tumor growth result in test [5] (statin administered alone, mice) is reported as “suppressed tumor growth”.
Consider Chidamide, for which the “Rel. Luc. Act” value in test [1] turned out to be 1.59.
